Data published in US20100292231A1, “Indazole Compounds for Treating Inflammatory Disorders, Demyelinating Disorders and Cancers” (priority 2007, published 2010).
pEC50: −log10 of the molar value.

Legend:
Test in all cases: SelectScreen kinase specificity survey
Type in all cases: biochemical
Settings in all cases: estimated, abridged dose response curve, read-out: Kinase inhibitory activity EC50
[1] = target: T1, JAK2 JH1 JH2 (Homo sapiens, UniProt O60674)
T1 construct: JAK2 JH1 JH2; purchased Invitrogen (SelectScreen platform)
Summary of the method: (§1)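 Optical reporter read-out of substrate phosphorylation, with a substrate unique to each kinase and ATP at 100 micromolar. A 5-increment inhibitor series was fitted by a sigmoid 4-parameter Hill model.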

[2] = target: T2, CSNK1G2 (CK1 gamma 2) (Homo sapiens, UniProt P78368)
T2 construct: purchased Invitrogen (SelectScreen platform)
Summary of the method: as §1

[3] = target: T3, FGFR4 (Homo sapiens, UniProt P22455)
T3 construct: purchased Invitrogen (SelectScreen platform)
Summary of the method: as §1

[4] = target: T4, STK3 (MST2) (Homo sapiens, UniProt Q13188)
T4 construct: purchased Invitrogen (SelectScreen platform)
Summary of the method: as §1

[5] = target: T5, PAK2 (PAK65) (Homo sapiens, UniProt Q13177)
T5 construct: purchased Invitrogen (SelectScreen platform)
Summary of the method: as §1

[6] = target: T6, EPHA3 (Homo sapiens, UniProt P29320)
T6 construct: purchased Invitrogen (SelectScreen service)
Summary of the method: as §1

[7] = target: T7, MAPK14 (p38 alpha) (Homo sapiens, UniProt Q16539)
T7 construct: purchased Invitrogen, Inc. (SelectScreen service)

[8] = target: T8, MINK1 (ZC3) (Homo sapiens, UniProt Q8N4C8)
T8 construct: purchased Invitrogen (SelectScreen platform)
Summary of the method: as §1

[9] = target: T9, ALK (Homo sapiens, UniProt Q9UM73)
T9 construct: purchased Invitrogen (SelectScreen platform)
Summary of the method: as §1

[10] = target: T10, PKN1 (PRK1) (Homo sapiens, UniProt Q16512)
T10 construct: purchased Invitrogen, Inc. (SelectScreen platform)
Summary of the method: as §1

[11] = target: T11, FLT3 (Homo sapiens, UniProt P36888)
T11 construct: purchased Invitrogen (SelectScreen platform)
T11 sequence (P36888 27-993): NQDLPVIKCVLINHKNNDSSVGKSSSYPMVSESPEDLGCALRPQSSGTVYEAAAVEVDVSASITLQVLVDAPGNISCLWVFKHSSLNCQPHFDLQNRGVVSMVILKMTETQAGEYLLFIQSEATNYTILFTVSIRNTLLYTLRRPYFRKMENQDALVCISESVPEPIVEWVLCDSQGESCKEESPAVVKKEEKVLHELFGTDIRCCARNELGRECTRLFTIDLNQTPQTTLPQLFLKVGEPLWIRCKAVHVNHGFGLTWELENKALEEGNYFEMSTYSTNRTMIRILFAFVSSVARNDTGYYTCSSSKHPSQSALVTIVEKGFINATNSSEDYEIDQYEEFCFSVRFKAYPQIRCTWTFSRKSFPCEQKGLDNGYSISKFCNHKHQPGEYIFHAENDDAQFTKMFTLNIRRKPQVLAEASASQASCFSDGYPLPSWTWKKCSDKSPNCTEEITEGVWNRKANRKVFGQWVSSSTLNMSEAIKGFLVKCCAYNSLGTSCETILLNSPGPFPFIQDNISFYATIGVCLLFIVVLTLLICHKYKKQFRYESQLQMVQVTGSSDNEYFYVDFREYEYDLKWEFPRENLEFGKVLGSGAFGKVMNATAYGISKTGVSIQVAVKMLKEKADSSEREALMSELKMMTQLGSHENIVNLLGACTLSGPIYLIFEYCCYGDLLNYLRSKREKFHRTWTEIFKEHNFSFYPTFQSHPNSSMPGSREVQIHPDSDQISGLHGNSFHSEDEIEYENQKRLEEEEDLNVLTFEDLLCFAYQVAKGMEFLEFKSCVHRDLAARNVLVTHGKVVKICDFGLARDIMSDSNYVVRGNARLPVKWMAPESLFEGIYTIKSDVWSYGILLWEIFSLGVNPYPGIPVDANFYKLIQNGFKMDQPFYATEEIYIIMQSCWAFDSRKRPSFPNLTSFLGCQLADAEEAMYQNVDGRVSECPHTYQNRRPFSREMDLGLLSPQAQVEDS
Summary of the method: as §1

[12] = target: T12, FGFR3 K650E (Homo sapiens, UniProt P22607, K650E)
T12 construct: purchased Invitrogen (SelectScreen platform)
Summary of the method: as §1

[13] = target: T13, CSNK1G1 (CK1 gamma 1) (Homo sapiens, UniProt Q9HCP0)
T13 construct: purchased Invitrogen (SelectScreen platform)
Summary of the method: as §1

[14] = target: T14, STK25 (YSK1) (Homo sapiens, UniProt O00506)
T14 construct: purchased Invitrogen (SelectScreen platform)
Summary of the method: as §1

[15] = target: T15, IRAK4 (Homo sapiens, UniProt Q9NWZ3)
T15 construct: purchased Invitrogen, Inc. (SelectScreen platform)
Summary of the method: as §1

[16] = target: T16, EPHB3 (Homo sapiens, UniProt P54753)
T16 construct: purchased Invitrogen (SelectScreen service)
Summary of the method: as §1

T10 sequence (Q16512 whole entry): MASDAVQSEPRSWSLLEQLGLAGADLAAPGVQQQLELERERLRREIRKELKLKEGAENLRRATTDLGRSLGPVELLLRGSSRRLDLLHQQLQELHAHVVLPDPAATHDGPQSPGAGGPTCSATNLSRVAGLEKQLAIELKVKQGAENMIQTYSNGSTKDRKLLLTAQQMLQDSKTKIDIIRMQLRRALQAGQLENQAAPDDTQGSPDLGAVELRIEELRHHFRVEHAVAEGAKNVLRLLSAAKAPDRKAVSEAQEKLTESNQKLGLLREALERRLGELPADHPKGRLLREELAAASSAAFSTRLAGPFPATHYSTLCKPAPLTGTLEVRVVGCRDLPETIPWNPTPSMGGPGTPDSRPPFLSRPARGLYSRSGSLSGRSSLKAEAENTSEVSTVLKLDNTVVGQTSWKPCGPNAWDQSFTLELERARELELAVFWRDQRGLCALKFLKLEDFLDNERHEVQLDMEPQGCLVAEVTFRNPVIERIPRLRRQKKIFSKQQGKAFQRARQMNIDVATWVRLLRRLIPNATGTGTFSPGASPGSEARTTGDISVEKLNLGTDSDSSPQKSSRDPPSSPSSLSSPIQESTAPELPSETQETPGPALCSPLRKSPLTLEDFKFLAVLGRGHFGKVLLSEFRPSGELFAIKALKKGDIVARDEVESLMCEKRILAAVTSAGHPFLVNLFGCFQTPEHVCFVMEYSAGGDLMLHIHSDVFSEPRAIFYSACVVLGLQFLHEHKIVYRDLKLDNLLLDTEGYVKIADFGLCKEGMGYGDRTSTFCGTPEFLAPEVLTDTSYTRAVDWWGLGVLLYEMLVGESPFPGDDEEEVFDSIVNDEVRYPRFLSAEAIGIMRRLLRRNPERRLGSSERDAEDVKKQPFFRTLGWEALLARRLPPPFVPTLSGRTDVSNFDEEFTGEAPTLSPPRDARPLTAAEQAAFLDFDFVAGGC
T13 sequence (Q9HCP0 whole entry): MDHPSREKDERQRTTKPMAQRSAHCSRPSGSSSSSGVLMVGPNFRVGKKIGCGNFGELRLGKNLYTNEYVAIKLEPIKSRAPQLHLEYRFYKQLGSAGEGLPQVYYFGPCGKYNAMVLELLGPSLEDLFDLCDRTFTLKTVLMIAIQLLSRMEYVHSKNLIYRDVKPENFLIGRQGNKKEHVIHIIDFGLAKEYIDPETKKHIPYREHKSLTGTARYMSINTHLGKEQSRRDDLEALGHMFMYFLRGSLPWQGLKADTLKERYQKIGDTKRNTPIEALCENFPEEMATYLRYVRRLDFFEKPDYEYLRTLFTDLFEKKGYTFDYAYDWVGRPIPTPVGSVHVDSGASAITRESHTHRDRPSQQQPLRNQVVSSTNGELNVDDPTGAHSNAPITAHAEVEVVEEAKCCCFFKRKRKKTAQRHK
T14 sequence (O00506 whole entry): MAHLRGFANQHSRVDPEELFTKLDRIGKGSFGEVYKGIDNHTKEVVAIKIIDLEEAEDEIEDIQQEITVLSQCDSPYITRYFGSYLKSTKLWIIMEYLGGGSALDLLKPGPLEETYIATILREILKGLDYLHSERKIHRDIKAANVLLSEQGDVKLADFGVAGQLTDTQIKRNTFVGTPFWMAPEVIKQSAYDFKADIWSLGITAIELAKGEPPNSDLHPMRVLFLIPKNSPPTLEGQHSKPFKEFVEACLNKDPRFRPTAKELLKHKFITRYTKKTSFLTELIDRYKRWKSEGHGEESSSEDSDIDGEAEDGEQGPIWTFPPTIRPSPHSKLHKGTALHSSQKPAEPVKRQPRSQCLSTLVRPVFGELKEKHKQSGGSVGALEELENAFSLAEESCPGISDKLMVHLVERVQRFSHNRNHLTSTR
T16 sequence (P54753 34-998): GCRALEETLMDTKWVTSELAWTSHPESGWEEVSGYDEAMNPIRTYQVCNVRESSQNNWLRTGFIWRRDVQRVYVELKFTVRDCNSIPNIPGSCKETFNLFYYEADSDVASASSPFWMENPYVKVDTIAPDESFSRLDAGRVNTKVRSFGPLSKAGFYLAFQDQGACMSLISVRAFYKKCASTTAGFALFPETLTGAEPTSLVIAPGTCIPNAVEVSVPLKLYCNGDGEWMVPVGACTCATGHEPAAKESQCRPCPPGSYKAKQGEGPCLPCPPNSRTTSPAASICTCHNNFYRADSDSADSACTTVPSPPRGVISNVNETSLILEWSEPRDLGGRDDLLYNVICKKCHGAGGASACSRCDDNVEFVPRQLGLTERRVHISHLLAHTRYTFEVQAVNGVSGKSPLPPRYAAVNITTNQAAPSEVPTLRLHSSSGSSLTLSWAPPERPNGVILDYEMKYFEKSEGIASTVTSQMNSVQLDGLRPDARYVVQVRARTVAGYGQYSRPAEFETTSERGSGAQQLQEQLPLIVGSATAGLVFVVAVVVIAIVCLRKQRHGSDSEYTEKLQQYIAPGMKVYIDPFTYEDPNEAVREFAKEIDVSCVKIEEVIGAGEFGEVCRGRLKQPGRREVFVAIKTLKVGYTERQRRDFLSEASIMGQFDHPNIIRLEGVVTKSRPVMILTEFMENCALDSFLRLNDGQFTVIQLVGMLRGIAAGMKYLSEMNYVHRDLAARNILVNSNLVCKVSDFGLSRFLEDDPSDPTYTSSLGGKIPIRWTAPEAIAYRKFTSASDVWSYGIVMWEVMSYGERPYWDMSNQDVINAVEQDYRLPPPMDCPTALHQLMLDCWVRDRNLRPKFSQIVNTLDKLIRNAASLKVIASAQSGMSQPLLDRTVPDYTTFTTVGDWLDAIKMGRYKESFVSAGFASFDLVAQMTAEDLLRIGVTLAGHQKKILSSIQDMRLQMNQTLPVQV
T7 sequence (Q16539 whole entry): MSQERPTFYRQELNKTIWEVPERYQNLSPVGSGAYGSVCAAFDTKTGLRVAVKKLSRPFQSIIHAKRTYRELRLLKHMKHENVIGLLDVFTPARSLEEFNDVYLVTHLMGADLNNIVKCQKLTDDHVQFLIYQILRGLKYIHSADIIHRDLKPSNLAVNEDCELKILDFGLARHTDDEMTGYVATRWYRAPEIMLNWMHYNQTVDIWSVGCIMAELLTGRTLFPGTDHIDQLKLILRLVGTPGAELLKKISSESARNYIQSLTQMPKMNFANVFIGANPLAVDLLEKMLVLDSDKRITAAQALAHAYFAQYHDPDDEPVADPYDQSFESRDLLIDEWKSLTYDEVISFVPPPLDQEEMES
T3 sequence (P22455 22-802): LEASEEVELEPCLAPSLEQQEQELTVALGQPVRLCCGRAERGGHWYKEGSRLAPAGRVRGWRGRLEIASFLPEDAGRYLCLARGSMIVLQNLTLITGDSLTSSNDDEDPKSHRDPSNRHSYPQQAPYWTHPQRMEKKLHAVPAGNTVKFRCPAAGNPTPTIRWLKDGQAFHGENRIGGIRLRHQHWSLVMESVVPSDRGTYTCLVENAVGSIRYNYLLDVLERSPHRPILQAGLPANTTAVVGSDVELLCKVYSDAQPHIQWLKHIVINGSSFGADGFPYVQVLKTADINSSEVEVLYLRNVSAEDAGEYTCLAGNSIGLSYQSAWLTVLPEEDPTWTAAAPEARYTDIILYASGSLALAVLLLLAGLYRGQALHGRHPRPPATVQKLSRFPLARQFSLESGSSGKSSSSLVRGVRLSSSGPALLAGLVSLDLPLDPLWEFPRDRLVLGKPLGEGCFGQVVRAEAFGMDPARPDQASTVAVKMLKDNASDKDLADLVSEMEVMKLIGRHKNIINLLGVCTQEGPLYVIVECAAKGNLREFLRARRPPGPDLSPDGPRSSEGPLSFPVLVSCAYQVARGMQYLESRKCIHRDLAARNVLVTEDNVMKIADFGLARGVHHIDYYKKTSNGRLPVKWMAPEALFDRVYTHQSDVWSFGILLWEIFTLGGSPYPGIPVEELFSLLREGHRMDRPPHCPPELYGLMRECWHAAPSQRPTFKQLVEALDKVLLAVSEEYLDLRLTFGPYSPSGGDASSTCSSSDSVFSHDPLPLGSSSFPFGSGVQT
T6 sequence (P29320 21-983): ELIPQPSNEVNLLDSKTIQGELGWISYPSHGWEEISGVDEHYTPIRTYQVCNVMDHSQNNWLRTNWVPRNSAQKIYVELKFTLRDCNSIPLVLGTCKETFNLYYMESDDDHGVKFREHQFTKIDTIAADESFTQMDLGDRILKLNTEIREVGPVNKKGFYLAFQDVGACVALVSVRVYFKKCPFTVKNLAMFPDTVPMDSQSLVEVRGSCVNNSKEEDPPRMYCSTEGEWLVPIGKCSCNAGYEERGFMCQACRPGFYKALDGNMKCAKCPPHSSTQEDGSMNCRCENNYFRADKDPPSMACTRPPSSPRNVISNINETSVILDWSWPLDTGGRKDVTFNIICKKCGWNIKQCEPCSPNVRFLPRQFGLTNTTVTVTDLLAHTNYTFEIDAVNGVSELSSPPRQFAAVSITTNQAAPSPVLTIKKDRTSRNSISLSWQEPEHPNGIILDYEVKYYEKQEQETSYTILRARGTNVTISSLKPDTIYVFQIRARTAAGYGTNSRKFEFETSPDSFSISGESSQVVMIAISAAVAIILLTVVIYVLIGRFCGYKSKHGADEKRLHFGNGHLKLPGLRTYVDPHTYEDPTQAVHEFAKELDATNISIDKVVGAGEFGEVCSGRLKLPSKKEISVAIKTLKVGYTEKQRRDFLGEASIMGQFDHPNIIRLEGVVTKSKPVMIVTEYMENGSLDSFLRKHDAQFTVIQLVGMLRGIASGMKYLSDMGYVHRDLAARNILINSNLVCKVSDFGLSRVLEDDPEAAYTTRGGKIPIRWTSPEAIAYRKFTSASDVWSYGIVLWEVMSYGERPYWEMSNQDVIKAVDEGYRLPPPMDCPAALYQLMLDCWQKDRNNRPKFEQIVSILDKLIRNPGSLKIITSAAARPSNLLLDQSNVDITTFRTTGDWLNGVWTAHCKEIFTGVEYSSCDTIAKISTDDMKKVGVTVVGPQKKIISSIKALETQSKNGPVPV

`CCN(CC)CCNc1ccc2ncn3c4ccc(O)cc4c(=O)c1c23` [Symadex, 5-(2-(diethylamino)ethylamino)-8-hydroxy-6H-imidazo[4,5,1-de]acridin-6-one, reference compound] gave a pEC50 [1] of less than 5.30, a pEC50 [2] of less than 5.30 and a pEC50 [3] of less than 5.30. It also gave a pEC50 [4] of less than 5.30, a pEC50 [5] of less than 5.30 and a pEC50 [6] of less than 5.30. It also gave a pEC50 [7] of 5.53, a pEC50 [8] of 5.96 and a pEC50 [9] of 5.61. It also gave a pEC50 [10] of 5.32, a pEC50 [11] of 7.82 and a pEC50 [12] of less than 5.30. For the same compound, the pEC50 [13] was less than 5.30, the pEC50 [14] was less than 5.30 and the pEC50 [15] was 6.07. The pEC50 [16] was less than 5.30.
In the case of `CN(C)CCCNc1ccc2ncn3c4ccc5[nH]ncc5c4c(=O)c1c23` [Compound (IV)], the pEC50 [1] was less than 5.30, the pEC50 [2] was less than 5.30 and the pEC50 [3] was less than 5.30. For the same compound, the pEC50 [4] was less than 5.30, the pEC50 [5] was less than 5.30 and the pEC50 [6] was less than 5.30. The pEC50 [7] was 5.42, the pEC50 [8] was 5.87 and the pEC50 [9] was 5.33. For the same compound, the pEC50 [10] was 5.86, the pEC50 [11] was 8.10 and the pEC50 [12] was less than 5.30. The pEC50 [13] was less than 5.30, the pEC50 [14] was less than 5.30 and the pEC50 [15] was 5.48. For the same compound, the pEC50 [16] was less than 5.30.
